Molecules are shown by their SMILES.

One series concerns mice. The note with it: cited from earlier work.
The next series deals with Salmonella. Conditions: cited from earlier work.
Another series has as its system mammalian cells. The note with it: mammalian cells in vitro; cited from earlier work.
The test system of series [1] is primary mouse keratinocytes. As to the kind of experiment: Differential display and Northern blot hybridization of mRNAs in treated primary mouse keratinocytes. The note with it: 24 hours treatment. The series is classed as cell-based. The procedure:
Cultures of newborn mouse keratinocytes were established essentially as described by H. Hennings (In Keratinocyte Methods, Cambridge University Press (1994), pages 21-23). Briefly, mice two to three days postpartum were sacrificed by metaphane narcosis, rinsed in 70% ethanol, and kept on ice. Skins were peeled off, stretched out and floated (with epidermis facing upward) on the surface of a 0.25% trypsin solution in Ca^+2, Mg^+2 free PBS overnight at 4° C. Skins were transferred to a sterile surface, the epidermis was separated from dermis, the epidermis was minced, and the mixture stirred in serum-free keratinocyte growth medium (KGM, Clonetics). This cell suspension was filtered through nylon gauze, cells were centrifuged (2,000 rpm for 5 min), resuspended in KGM with 20 μM Ca^+2 (20 KGM), and then the cells were counted and plated (approximately 2×10^6 per 10 cm plate coated with mouse collagen type IV in 20 KGM) and the cell cultures were incubated at 37° C. with a 7% CO2. After 16-24 hours, cells were washed in Ca^+2, Mg^+2 free phosphate buffered saline (PBS), and cultivated on 20 KGM, with the cell culture medium changed (that is, old medium discarded and fresh medium provided) each other day. For induction of terminal differentiation, medium was changed, usually on the sixth day of cultivation of the keratinocytes, to KGM containing 1.2 mM Ca^+2, and the keratinocytes were cultivated for 24 hours before RNA isolation.
For phorbol-myristate acetate (TPA) treatment, keratinocyte cultures were fed with 20 KGM containing 0.1 μg/ml of 12-O-tetradecanoyil-13-phorbol-acetate for 24 hours, before isolation of RNA.
Total RNA was isolated by acid phenol procedure using TRI Reagent™ (Molecular Research Center, Inc.) and according to manufacturer's instructions from (1) terminally differentiated keratinocytes, cultivated in KGM medium containing 1.2 mM Ca^+2 for 24 hours; (2) TPA-treated keratinocytes, cultivated in KGM containing 20 μM Ca^+2 and 0.1 μg/ml TPA for 24 hours; and (3) control keratinocyte cultures fed 24 hours before RNA isolation with 20 KGM containing, in some experiments, 0.05% DMSO (dimethyl sulphoxide).
Differential display of total RNAs from keratinocyte cultures (1), (2), and (3) was performed with Delta-RNA Fingerprinting Kit™ (Clontech) according to the manufacturer's instructions. Briefly, cDNAs were synthesized from total RNAs using Murine Moloney Leukemia Virus (MMLV) reverse transcriptase. Two dilutions of cDNA were prepared (diluted 10-fold and 40-fold). Each total RNA sample was used to synthesize cDNA that was amplified using polymerase chain reaction (PCR) methodology using P & T primers in presence of [α-^33P] dATP. […] The appearance of a band from a sample that was not present in the control lane indicated overexpression and the disappearance or reduction in intensity of a band indicated suppression of synthesis. The candidate bands were cut from the sequencing gel and reamplified using the original primer pairs. Following electrophoresis on agarose gels, reamplified DNA fragments were cut out and purified using a QIAEX II gel extraction kit™ (QIAGEN). The DNAs were labeled and used to confirm the differential expression by hybridization with Northern blots of Poly (A)^+ containing RNA isolated from total RNAs (1), (2), and (3). Equal quantities of these RNAs were electrophoresed on agarose gels and blotted to nitrocellulose filters. Equal loading of RNA was confirmed by hybridization with a β-actin probe, whose mRNA was assumed to be present in approximately equal amounts in all of the preparations. The blots were stripped of radiolabel and then used to confirm the differential synthesis of a fragment. Upon confirmation, the fragment was cloned into pCRII using the TA cloning kit™ (Introvitrogen). Cloned DNA fragments were sequenced with SequiTerm Excel II kit™ (Epicentre Technology).

The test system of another series is mouse liver. As to the kind of experiment: Differential gene expression in livers of DMBA treated mice, Atlas membranes. Conditions: liver of DMBA treated animal vs control animal.

On to `c1ccoc1` [Furan], for which the “induction of hepatocellular carcinomas” value in the series on mice was “induce hepatocellular carcinomas”. Also, the Salmonella mutagenicity test result in the series on Salmonella is on record as “negative”. Further, in the series with mammalian cells, the chromosomal aberrations result was “induces”, the gene mutations entry is on record as “induces” and the sister chromatide exchanges result is reported as “induces”.
Regarding `CCCCCCCCCCCCCC(=O)O[C@@H]1[C@@H](C)[C@@]2(O)[C@@H](C=C(CO)C[C@]3(O)C(=O)C(C)=C[C@@H]23)[C@@H]2C(C)(C)[C@]12OC(C)=O` [TPA, 12-O-tetradecanoyil-13-phorbol-acetate], the “Changes in Expression (Comparative to Untreated cells)” value in series [1] (gene fragment 2552/4, 5.5 kb RNA) is “Suppressed in TPA-”; in series [1] (gene fragment 2672/1, Mouse ESTs AA492919, AA607761), “Suppressed in TPA-”; in series [1] (gene fragment 4314, AA109991, AA561914, AA067670, AA864127), “Overexpressed in”; in series [1] (gene fragment 19102/3, Mouse ESTs AA038613, W14382) it was “Suppressed in TPA-”; in series [1] (gene fragment 31774/6/8, 6 kb RNA, Mouse ESTs AA423711, W82493), “Suppressed in TPA-”; in series [1] (gene fragment 31777, Mouse EST AA073833), “Overexpressed in”. For the same compound, the “Changes in Expression (Comparative to Untreated cells)” value was “Overexpressed in” in series [1] (gene fragment 83442, Mouse Connexin 26); “Suppressed in TPA-” in series [1] (gene fragment 110176/4, homologous to Mouse Cytokeratin Endo A); “Suppressed in TPA-” in series [1] (gene fragment 3177715, Mouse ESTs AA423711, AA637015).
As to `Cc1c2ccccc2c(C)c2c1ccc1ccccc12` [DMBA, 7, 12-dimethyl benz[α] anthracene], in the series with mouse liver, the “differential pattern of gene expression in liver” value was “differential expression was observed”.
As for `ClC=C(Cl)Cl` [TCE, trichloroethylene], in the series on mice, the “induction of hepatocellular carcinomas” value is given as “induce hepatocellular carcinomas”. Moreover, in the series on Salmonella, the Salmonella mutagenicity test entry is “negative”.

These data come from US6593084B2, “Carcinogen assay” (priority 1998, dated 2003).
